One experiment addresses human CYP4A11 (Homo sapiens (Human), UniProt Q02928). In words: Inhibition test against 20-HETE producing enzyme CYP4A11 (luciferine derivative, luminescence). Format: biochemical. The protocol: (§1) (1) Inhibition Test for Each Compound of the Present Invention Against 20-HETE Producing Enzymes (CYP4F2 and CYP4A11)
(§2) In the CYP4F2 inhibition test, the reaction solution containing each compound [final concentration of 50 mM, KPO4 (pH 7.4), 2.5 μM luciferine derivative, and 1 mM NADPH] was added to an Escherichia coli membrane fraction (100 μg/mL protein) in which human CYP4F2 had been expressed. In the CYP4A11 inhibition test, the reaction solution containing each compound [final concentration of 100 mM, Tris-HCl (pH 7.5), 60 μM luciferine derivative, 1.3 mM NADP^+, 3.3 mM Glucose 6-Phosphate, 3.3 mM MgCl2, and 0.4 U/mL Glucose 6-Phosphate dehydrogenase] was added to an Escherichia coli membrane fraction (100 μg/mL protein) in which human CYP4A11 had been expressed. Following this, the membrane fraction was left to stand at room temperature for 60 minutes to perform an enzymatic reaction. After the reaction, a luciferine detection reagent was added, and the luminescence value was measured using a plate reader. By using that value, the percent inhibition of 20-HETE producing enzyme (%) was calculated according to the equation described below, and the 50% inhibitory concentration (IC50 value) for each compound was calculated. Percent inhibition of 20-HETE producing enzyme (%)=[1−(A−B)/(C−B)]*100
(§3) A: Luminescence value with addition of compound
(§4) B: Luminescence value without addition of compound and enzyme

A further experiment deals with human CYP4F2 (Homo sapiens (Human), UniProt P78329). The experiment in a line: Inhibition test against 20-HETE producing enzyme CYP4F2 (luciferine derivative, luminescence). It counts as biochemical. As to the method: as §1, §2, §3, §4
human CYP4F2, sequence (P78329 5-520): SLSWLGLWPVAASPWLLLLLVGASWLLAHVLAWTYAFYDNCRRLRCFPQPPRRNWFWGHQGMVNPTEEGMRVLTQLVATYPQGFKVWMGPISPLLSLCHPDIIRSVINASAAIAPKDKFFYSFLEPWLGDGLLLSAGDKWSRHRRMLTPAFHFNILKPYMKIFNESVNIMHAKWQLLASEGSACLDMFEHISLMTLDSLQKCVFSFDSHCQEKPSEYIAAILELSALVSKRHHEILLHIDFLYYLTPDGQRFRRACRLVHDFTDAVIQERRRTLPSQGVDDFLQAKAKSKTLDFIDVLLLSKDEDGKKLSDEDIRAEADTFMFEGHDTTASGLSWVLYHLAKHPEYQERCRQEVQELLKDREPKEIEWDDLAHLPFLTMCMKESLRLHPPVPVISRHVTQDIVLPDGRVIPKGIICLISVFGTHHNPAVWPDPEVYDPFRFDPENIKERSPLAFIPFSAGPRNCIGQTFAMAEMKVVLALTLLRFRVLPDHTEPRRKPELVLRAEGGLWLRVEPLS
Where [1] appears, read: E. coli membrane fraction expressing human CYP4A11, 60 μM luciferine derivative, room temperature 60 minutes.
[2] abbreviates: E. coli membrane fraction expressing human CYP4F2, 2.5 μM luciferine derivative, room temperature 60 minutes.
Where [3] appears, read: human CYP4A11, luciferine derivative, luminescence.
[4] abbreviates: human CYP4F2, luciferine derivative, luminescence.

Molecules are shown by their SMILES.

One may read the IC50 as the concentration that inhibits the measured activity by half. High values mean a need for much substance, low ones inhibition by little substance.

human CYP4A11, sequence (Q02928 5-519): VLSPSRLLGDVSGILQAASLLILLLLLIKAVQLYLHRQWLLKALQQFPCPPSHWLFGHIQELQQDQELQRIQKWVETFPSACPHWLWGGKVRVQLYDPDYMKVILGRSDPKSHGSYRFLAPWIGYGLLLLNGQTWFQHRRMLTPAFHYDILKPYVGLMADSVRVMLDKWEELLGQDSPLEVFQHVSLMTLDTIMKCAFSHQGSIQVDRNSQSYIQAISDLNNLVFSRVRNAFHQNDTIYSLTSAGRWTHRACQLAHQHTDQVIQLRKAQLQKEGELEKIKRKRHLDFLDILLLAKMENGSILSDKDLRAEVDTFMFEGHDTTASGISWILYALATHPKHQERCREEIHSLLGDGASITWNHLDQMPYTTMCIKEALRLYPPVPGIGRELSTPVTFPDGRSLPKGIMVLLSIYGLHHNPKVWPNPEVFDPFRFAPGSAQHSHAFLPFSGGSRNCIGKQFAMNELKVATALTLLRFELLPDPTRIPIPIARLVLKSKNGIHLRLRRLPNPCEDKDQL

Regarding `O=C(O)Cn1ccc(CCCCOc2ccc(-c3ccn[nH]3)nc2)cc1=O` [Example 8-15], the values for the IC50 on human CYP4A11 (setting [1]) and against human CYP4F2 (setting [2]) were 530 nM and 1400 nM, respectively.
For `O=C(O)Cc1cccc(COc2ccc(-c3cnco3)nc2)c1` [Example 40-1, 2-[3-[[6-(5-Oxazolyl)-3-pyridinyl]oxymethyl]phenyl]acetic Acid], in that order: 9.9 nM and 28000 nM.
Consider `O=C(O)[C@@H]1CCCN(C(=O)c2cccc(COc3ccc(-c4ccn[nH]4)nc3)c2)C1` [Example 45-28], for which the IC50 at human CYP4A11 (setting [3]) came to 270 nM; against human CYP4F2 (setting [4]), 3700 nM.
For the molecule `O=C(CCc1cccc(COc2ccc(-c3ccn[nH]3)nc2)c1)NCCO` [Example 42-11], the IC50 was found to be 100 nM on human CYP4A11 (setting [1]) and 95 nM on human CYP4F2 (setting [2]).
Regarding `CC(C)(Oc1ccc(CCOc2ccc(-c3ccn[nH]3)nc2)cn1)C(=O)O` [Example 71-32], the IC50 was found to be 6200 nM at human CYP4A11 (setting [3]) and 23000 nM on human CYP4F2 (setting [4]).
On to `Oc1cc(CCCOc2ccc(-c3ccn[nH]3)nc2)ccc1F` [Example 11-3], for which the IC50 is 270 nM against human CYP4A11 (setting [1]) and 7.3 nM at human CYP4F2 (setting [2]).
For `O=C(O)CCc1ccc(CCCOc2ccc(-c3ccn[nH]3)nc2)cc1` [Example 8-7], in that order: 440 nM and 280 nM.
For `O=C(O)C1(CCCCCCOc2ccc(-c3ccn[nH]3)nc2)CCS(=O)(=O)CC1` [Example 3-7], in that order: 1600 nM and 5700 nM.
Consider `O=C(O)[C@H]1CCCN(S(=O)(=O)c2cccc(COc3ccc(-c4ccn[nH]4)nc3)c2)C1` [Example 69-4-2], for which the IC50 stood at 40 nM against human CYP4A11 (setting [3]) and 670 nM against human CYP4F2 (setting [4]).
With `O=C(O)[C@H]1COc2ccc(COc3ccc(-c4ccn[nH]4)nc3)cc2C1` [Example 69-2-2], the IC50 against human CYP4A11 (setting [3]) turned out to be 36 nM; at human CYP4F2 (setting [4]), 1100 nM.
Take `O=C(O)[C@H]1CCc2ccc(CCOc3ccc(-c4ccn[nH]4)nc3)cc2O1` [Example 71-22-1]: the IC50 at human CYP4A11 (setting [3]) worked out at 250 nM; at human CYP4F2 (setting [4]), 310 nM.
Consider `O=C(O)Cn1cc(CCCCOc2ccc(-c3ccn[nH]3)nc2)cn1` [Example 8-12], for which the IC50 worked out at 100 nM at human CYP4A11 (setting [1]) and 5000 nM on human CYP4F2 (setting [2]).
As for `O=C(O)C1CCCN(c2cccc(COc3ccc(-c4ccn[nH]4)nc3)c2)C1` (stereo not drawn) [Example 34-2], the IC50 against human CYP4A11 (setting [1]) was found to be 50 nM; on human CYP4F2 (setting [2]), 11000 nM.
As for `CC(=O)N1CCC(CCCCCCCCOc2ccc(-c3ccn[nH]3)nc2)(C(=O)O)C1` (stereo not drawn) [Example 72-9], the figures for the IC50 against human CYP4A11 (setting [3]) and on human CYP4F2 (setting [4]) were 230 nM and 18 nM, respectively.
As for `CC(C)(CC(=O)N1CCC(COc2ccc(-c3ccn[nH]3)nc2)CC1)C(=O)O` [Example 46-1, 2,2-Dimethyl-4-oxo-4-[4 [[6-(1H-pyrazol-5-yl)-3-pyridinyl]oxymethyl]-1-piperidinyl]butanoic Acid], the IC50 was 3200 nM against human CYP4A11 (setting [1]) and 7600 nM on human CYP4F2 (setting [2]).
For `O=C(CCC12CC(C(=O)O)(C1)C2)N1CCC[C@@H](COc2ccc(-c3ccn[nH]3)nc2)C1` [Example 46-2], in that order: 730 nM and 470 nM.
For `O=C(O)[C@]12CC3C[C@H](C1)[C@H](COc1ccc(-c4ccn[nH]4)nc1)[C@@H](C3)C2` [Example 2-1, trans-4-[[6-(1H-Pyrazol-5-yl)-3-pyridinyl]oxymethyl]-1-adamantanecarboxylic Acid] the same measures were 23 nM and 24000 nM.
In the case of `O=C(O)c1ccc(CCCCCOc2ccc(-c3ccn[nH]3)nc2)cn1` [Example 71-29], the half-inhibitory concentration (IC50) at human CYP4A11 (setting [3]) was 110 nM; against human CYP4F2 (setting [4]), 260 nM.
Consider `O=C(O)c1cccc(CNC(=O)c2cccc(COc3ccc(-c4ccn[nH]4)nc3)c2)c1` [Example 45-25], for which the IC50 came out at 40 nM on human CYP4A11 (setting [3]) and 370 nM against human CYP4F2 (setting [4]).
For `O=C(CCc1cccc(COc2cnc(-c3ccn[nH]3)c(F)c2)c1)N1CC(O)C1` [Example 42-19], in that order: 110 nM and 47 nM.
For `O=C(O)C1CC1c1cc(F)cc(CCOc2ccc(-c3ccn[nH]3)nc2)c1` (single isomer, unassigned) [Example 74-10] the same measures were 56 nM and 2600 nM.
Turning to `O=C(O)c1ncc(-c2cccc(COc3ccc(-c4ccn[nH]4)nc3)c2)cn1` [Example 22-7], the IC50 on human CYP4A11 (setting [1]) came to 38 nM; at human CYP4F2 (setting [2]), 1200 nM.
For `O=C(O)c1cnn(CCCCOc2ccc(-c3ccn[nH]3)nc2)c1` [Example 15-3] the same measures were 130 nM and 6300 nM.
As to `CC(C)(Oc1ccc(CCOc2ccc(-c3ccn[nH]3)nc2)cc1)C(=O)O` [Example 71-30], the figures for the IC50 against human CYP4A11 (setting [3]) and on human CYP4F2 (setting [4]) were 1900 nM and 11000 nM, respectively.
For `O=C(O)Cn1ccc(-c2cccc(COc3ccc(-c4ccn[nH]4)nc3)c2)cc1=O` [Example 1-58], the IC50 at human CYP4A11 (setting [1]) is 86 nM; on human CYP4F2 (setting [2]), 650 nM.
For `CC(=O)N1CCC(CCCCCCOc2ccc(-c3ccn[nH]3)nc2)(C(=O)O)CC1` [Example 3-5] the same measures were 2200 nM and 3000 nM.
As for `CS(=O)(=O)c1cc(O)cc(COc2ccc(-c3ccn[nH]3)nc2)c1` [Example 20-2], the results for the IC50 against human CYP4A11 (setting [1]) and on human CYP4F2 (setting [2]) were 210 nM and 69 nM, respectively.
On to `CO[C@H](C)CNC(=O)CCc1cccc(COc2ccc(-c3ccn[nH]3)nc2)c1` [Example 43-12], for which the IC50 stood at 76 nM on human CYP4A11 (setting [3]) and 40 nM on human CYP4F2 (setting [4]).
For `O=C(O)C1CCc2ccc(COc3ccc(-c4[nH]ncc4Cl)nc3)cc2O1` (single isomer, unassigned) [Example 75-7], in that order: 7.7 nM and 20 nM.
For `O=C(O)/C=C/c1ccc(CCOc2ccc(-c3ccn[nH]3)nc2)cc1` [Example 70-6] the same measures were 76 nM and 47 nM.
For the molecule `CC(C)(COc1cc(CCCOc2ccc(-c3ccn[nH]3)nc2)ccn1)C(=O)O` [Example 71-43], the values for the IC50 on human CYP4A11 (setting [3]) and at human CYP4F2 (setting [4]) were 870 nM and 250 nM, respectively.
As for `O=C(O)C1(CCCCCCCOc2ccc(-c3ccn[nH]3)nc2)CCCC1` [Example 1-45], the IC50 against human CYP4A11 (setting [1]) worked out at 46 nM; against human CYP4F2 (setting [2]), 19 nM.
For `O=C(O)C12CCC(COc3ccc(-c4ccn[nH]4)nc3)(CC1)CC2` [Example 8-18] the same measures were 52 nM and 16000 nM.
Consider `O=C(O)c1ccc(-c2cccc(COc3ccc(-c4ccn[nH]4)nc3)c2)cn1` [Example 31-3, 5-[3-[[6-(1H-Pyrazol-5-yl)-3-pyridinyl]oxymethyl]phenyl]-2-pyridinecarboxylic Acid], for which the IC50 was 25 nM on human CYP4A11 (setting [1]) and 180 nM on human CYP4F2 (setting [2]).
For the molecule `O=C(O)C1(CCCCCCCCOc2ccc(-c3ccn[nH]3)nc2)CCS(=O)(=O)CC1` [Example 72-6], the concentration for half-maximal inhibition (IC50) on human CYP4A11 (setting [3]) was 270 nM; against human CYP4F2 (setting [4]), 9.4 nM.
On to `CN([C@H]1CC[C@H](Oc2ccc(-c3ccn[nH]3)nc2)CC1)S(C)(=O)=O` [Example 57-3], for which the IC50 against human CYP4A11 (setting [1]) and against human CYP4F2 (setting [2]) was 2000 nM each time.
`O=C(O)C1COc2cc(CCOc3ccc(-c4ccn[nH]4)nc3)ccc2C1` (stereo not drawn) [Example 71-9]: the IC50 on human CYP4A11 (setting [3]) was 310 nM; at human CYP4F2 (setting [4]), 870 nM.
For `CN(C)C(=O)/C=C/c1cccc(COc2ccc(-c3ccn[nH]3)nc2)c1` [Example 42-16], in that order: 210 nM and 5.7 nM.
For `CC(C)(Oc1cc(CCCOc2ccc(-c3ccn[nH]3)nc2)ccn1)C(=O)O` [Example 71-42] the same measures were 630 nM and 2100 nM.

Source of the values: US11365192B2, “Pyridine compound substituted with azole” (TAISHO PHARMACEUTICAL CO., LTD., priority 2017, dated 2022).
